# Source: patent US11753445B2, “Therapeutic peptides” (COHBAR, INC., priority 2016, dated 2023)
# Peptide text beside a SMILES is read from it.
# System: 3T3-L1 Adipocytes
# Experiment: Free fatty acid levels in cultured mouse 3T3-L1 adipocytes, isoproterenol stimulated (Example 2)
# Format: cell-based
# Conditions: test peptides 25 μM; isoproterenol 1 nM
# Description: Mouse 3T3-L1 cells were seeded at a density between 1,000-20,000 cells per well on 96-well, 48-well, or 24-well plates in Pre-adipocyte Medium (Zen-Bio, Durham, N.C.) and grown to confluence at 37° C. in a humidified atmosphere of 5% CO2/95% air. Two days after confluence, cells were placed in Adipocyte Differentiation Medium (Zen-Bio, Durham, N.C.) and cultured for three additional days at 37° C. in a humidified atmosphere of 5% CO2/95% air. The culture media was then replaced with Adipocyte Maintenance Medium (Zen-Bio) and the cells were maintained for an additional 9-14 days at 37° C. in a humidified atmosphere of 5% CO2/95% air with partial medium replacement every other day. Following 12-17 days of differentiation, test peptides were added at a final concentration of 25 μM and incubated for 18-20 hours in Adipocyte Maintenance Medium at 37° C. in a humidified atmosphere of 5% CO2/95%. After 18-20 hours, the media was exchanged with fresh Adipocyte Maintenance Medium containing test peptides and incubated for 1 h at 37° C. in a humidified atmosphere of 5% CO2/95%. After 1 h media was exchanged with Assay Buffer (Zen-Bio) containing isoproterenol (1 nM) (added to all samples except untreated controls) and the test peptides. Cells were incubated for a further 3 hours at 37° C. in a humidified atmosphere of 5% CO2/95%. Free fatty acid concentrations in the media were determined using a Free Fatty Acid Assay Kit (Zen-Bio) according to the manufacturer's instructions using a plate reader (540 nm).
# Absorbance values were corrected for untreated background and expressed relative to isoproterenol treated cells. Treatment with isoproterenol (1 nM) alone was used as the free fatty acid level stimulatory control. The relative standard deviation of the isoproterenol control was <10%. […] Free fatty acid levels for insulin (100 nM) treatment were <5% of the isoproterenol control value.
row,Compound,Free Fatty Acid Levels in 3T3-L1 Adipocytes Expressed as a Percent of Isoproterenol Control: Percent of Control Value [%]
1,CC[C@H](C)[C@H](NC(=O)[C@H](Cc1ccc(O)cc1)NC(=O)CNC(=O)[C@H](CCSC)NC(=O)[C@H](CCC(=O)O)NC(=O)[C@H](CCC(N)=O)NC(=O)[C@H](Cc1c[nH]c2ccccc12)NC(=O)[C@H](CCCNC(=N)N)NC(=O)[C@@H](N)CCSC)C(=O)N[C@@H](Cc1ccccc1)C(=O)N[C@H](C)C(=O)N1CCC[C@H]1C(=O)N[C@@H](CCCNC(=N)N)C(=O)N[C@@H](CCCCN)C(=O)N[C@@H](CC(C)C)C(=O)N[C@@H](CCCNC(=N)N)C(=O)O [compound 146] (HELM PEPTIDE1{M.R.W.Q.E.M.G.Y.I.F.[dA].P.R.K.L.R}$$$$V2.0),55.9
2,CC[C@H](C)[C@H](NC(=O)[C@H](Cc1ccc(O)cc1)NC(=O)CNC(=O)[C@H](CCSC)NC(=O)[C@H](CCC(=O)O)NC(=O)[C@H](CCC(N)=O)NC(=O)[C@H](Cc1c[nH]c2ccccc12)NC(=O)[C@H](CCCNC(=N)N)NC(=O)[C@@H](N)CCSC)C(=O)N[C@@H](Cc1ccccc1)C(=O)N[C@@H](Cc1ccc(O)cc1)C(=O)N1CCC[C@H]1C(=O)N[C@@H](CCCNC(=N)N)C(=O)N[C@@H](CCCCN)C(=O)N[C@@H](CC(C)C)C(=O)N[C@H](C)C(=O)O [compound 151] (HELM PEPTIDE1{M.R.W.Q.E.M.G.Y.I.F.Y.P.R.K.L.[dA]}$$$$V2.0),47.9
3,Ac-MRWQEMGYIFYPRK-NH2 [compound 60],89.3
4,CC[C@H](C)[C@H](NC(=O)[C@H](Cc1ccc(O)cc1)NC(=O)CNC(=O)[C@H](CCSC)NC(=O)[C@H](CCC(=O)O)NC(=O)[C@H](CCC(N)=O)NC(=O)[C@H](Cc1c[nH]c2ccccc12)NC(=O)[C@H](CCCNC(=N)N)NC(=O)[C@@H](N)CCSC)C(=O)N[C@H](C)C(=O)N[C@@H](Cc1ccc(O)cc1)C(=O)N1CCC[C@H]1C(=O)N[C@@H](CCCNC(=N)N)C(=O)N[C@@H](CCCCN)C(=O)N[C@@H](CC(C)C)C(=O)N[C@@H](CCCNC(=N)N)C(=O)O [compound 145] (HELM PEPTIDE1{M.R.W.Q.E.M.G.Y.I.[dA].Y.P.R.K.L.R}$$$$V2.0),50.2
5,"CC[C@H](C)[C@@H]1NC(=O)[C@H](Cc2ccc(O)cc2)NC(=O)CNC(=O)[C@H](CCSC)NC(=O)[C@@H](NC(=O)[C@H](CCC(N)=O)NC(=O)[C@H](Cc2c[nH]c3ccccc23)NC(=O)[C@H](CCCNC(=N)N)NC(=O)[C@@H](N)CCSC)CCC(=O)NCCCC[C@@H](C(=O)N[C@@H](CCCNC(=N)N)C(=O)N[C@@H](CCCCN)C(=O)N[C@@H](CC(C)C)C(=O)N[C@@H](CCCNC(=N)N)C(=O)O)NC(=O)[C@H](Cc2ccc(O)cc2)NC(=O)[C@H](Cc2ccccc2)NC1=O [compound 224] (HELM PEPTIDE1{M.R.W.Q.E.M.G.Y.I.F.Y.K.R.K.L.R}$PEPTIDE1,PEPTIDE1,5:R3-12:R3$$$V2.0)",56.2
6,Ac-MRWQEMGYIFYPRKL-NH2 [compound 59],92.2
7,Ac-MRWQEMGYIFYPRRLR-NH2 [compound 131],78.1
8,"CC[C@H](C)[C@@H]1NC(=O)[C@H](Cc2ccc(O)cc2)NC(=O)CNC(=O)[C@H](CCSC)NC(=O)[C@@H](NC(=O)[C@H](CCC(N)=O)NC(=O)[C@H](Cc2c[nH]c3ccccc23)NC(=O)[C@H](CCCNC(=N)N)NC(=O)[C@H](CCSC)NC(C)=O)CCC(=O)NCCCC[C@@H](C(=O)N[C@@H](CC(C)C)C(=O)N[C@@H](CCCNC(=N)N)C(N)=O)NC(=O)[C@H](CCCNC(=N)N)NC(=O)[C@@H]2CCCN2C(=O)[C@H](Cc2ccc(O)cc2)NC(=O)[C@H](Cc2ccccc2)NC1=O [compound 227] (HELM PEPTIDE1{[ac].M.R.W.Q.E.M.G.Y.I.F.Y.P.R.K.L.R.[am]}$PEPTIDE1,PEPTIDE1,6:R3-15:R3$$$V2.0)",24.5
9,CSCC[C@H](NC(=O)[C@H](CCC(=O)O)NC(=O)[C@H](CCC(N)=O)NC(=O)[C@H](Cc1c[nH]c2ccccc12)NC(=O)[C@H](CCCNC(=N)N)NC(=O)[C@@H](N)CCSC)C(=O)NCC(=O)N[C@@H](Cc1ccc(O)cc1)C(=O)N[C@H](C)C(=O)N[C@@H](Cc1ccccc1)C(=O)N[C@@H](Cc1ccc(O)cc1)C(=O)N1CCC[C@H]1C(=O)N[C@@H](CCCNC(=N)N)C(=O)N[C@@H](CCCCN)C(=O)N[C@@H](CC(C)C)C(=O)N[C@@H](CCCNC(=N)N)C(=O)O [compound 144] (HELM PEPTIDE1{M.R.W.Q.E.M.G.Y.[dA].F.Y.P.R.K.L.R}$$$$V2.0),57.0
10,H-MRWQEMGYIFYPRRLR-OH [compound 125],50.2
11,Ac-ARWQEMGYIFYPRKLR-NH2 [compound 22],78.7
12,Ac-MRWQEMEYIFYPRKLR-NH2 [compound 188],86.5
13,H-ERWQEMGYIFYPRKLR-OH [compound 168],52.2
14,Ac-LRWQEMGYIFYPRKR-NH2 [compound 116],101.8
15,CC[C@H](C)[C@H](NC(=O)[C@H](Cc1ccc(O)cc1)NC(=O)CNC(=O)[C@H](CCSC)NC(=O)[C@H](CCC(=O)O)NC(=O)[C@H](CCC(N)=O)NC(=O)[C@H](Cc1c[nH]c2ccccc12)NC(=O)[C@H](CCCNC(=N)N)NC(=O)[C@H](CCSC)NC(C)=O)C(=O)N[C@@H](Cc1ccccc1)C(=O)N[C@@H](Cc1ccc(O)cc1)C(=O)N[C@H](C)C(=O)N[C@@H](CCCNC(=N)N)C(=O)N[C@@H](CCCCN)C(=O)N[C@@H](CC(C)C)C(=O)N[C@@H](CCCNC(=N)N)C(N)=O [compound 163] (HELM PEPTIDE1{[ac].M.R.W.Q.E.M.G.Y.I.F.Y.[dA].R.K.L.R.[am]}$$$$V2.0),91.8
16,Ac-MRWQEMGYIFYPRALR-NH2 [compound 35],31.3
17,CC[C@H](C)[C@H](NC(=O)[C@H](Cc1ccc(O)cc1)NC(=O)CNC(=O)[C@H](CCSC)NC(=O)[C@H](CCC(=O)O)NC(=O)[C@H](CCC(N)=O)NC(=O)[C@H](Cc1c[nH]c2ccccc12)NC(=O)C(C)(C)NC(=O)[C@H](CCSC)NC(C)=O)C(=O)N[C@@H](Cc1ccccc1)C(=O)N[C@@H](Cc1ccc(O)cc1)C(=O)N1CCC[C@H]1C(=O)N[C@@H](CCCNC(=N)N)C(=O)N[C@@H](CCCCN)C(=O)N[C@@H](CC(C)C)C(=O)N[C@@H](CCCNC(=N)N)C(N)=O [compound 121] (HELM PEPTIDE1{[ac].M.[Aib].W.Q.E.M.G.Y.I.F.Y.P.R.K.L.R.[am]}$$$$V2.0),89.8
18,CC[C@H](C)[C@H](NC(=O)[C@H](Cc1ccc(O)cc1)NC(=O)CNC(=O)[C@H](CCSC)NC(=O)[C@H](CCC(=O)O)NC(=O)[C@H](CCC(N)=O)NC(=O)[C@H](Cc1c[nH]c2ccccc12)NC(=O)[C@@H](C)NC(=O)[C@H](CCSC)NC(C)=O)C(=O)N[C@@H](Cc1ccccc1)C(=O)N[C@@H](Cc1ccc(O)cc1)C(=O)N1CCC[C@H]1C(=O)N[C@@H](CCCNC(=N)N)C(=O)N[C@@H](CCCCN)C(=O)N[C@@H](CC(C)C)C(=O)N[C@@H](CCCNC(=N)N)C(N)=O [compound 153] (HELM PEPTIDE1{[ac].M.[dA].W.Q.E.M.G.Y.I.F.Y.P.R.K.L.R.[am]}$$$$V2.0),93.1
19,H-MRWQEMGYIFYP-OH [compound 48],57.1
20,H-ERWQEAGYIAYPRKLA-OH [compound 239],66.6
21,CC[C@H](C)[C@H](NC(=O)[C@H](Cc1ccc(O)cc1)NC(=O)CNC(=O)[C@H](C)NC(=O)[C@H](CCC(=O)O)NC(=O)[C@H](CCC(N)=O)NC(=O)[C@H](Cc1c[nH]c2ccccc12)NC(=O)[C@H](CCCNC(=N)N)NC(=O)[C@@H](N)CCC(=O)O)C(=O)N[C@@H](C)C(=O)N[C@@H](Cc1ccc(O)cc1)C(=O)N1CCC[C@H]1C(=O)N[C@@H](CCCNC(=N)N)C(=O)N[C@@H](CCCCN)C(=O)N[C@@H](CC(C)C)C(=O)N[C@H](C)C(=O)O [compound 240] (HELM PEPTIDE1{E.R.W.Q.E.A.G.Y.I.A.Y.P.R.K.L.[dA]}$$$$V2.0),48.6
22,Ac-LRWQEMGYIFYPRKRL-NH2 [compound 111],106.0
